Data from patent US20080155704A1, “Methods and Compositions for Determining in vivo Activity of BiP” (King's College London, priority 2006, published 2008).

Tested on: monocyte-derived dendritic cells
Test: Surface expression of phenotypic markers on monocyte-derived dendritic cells (immunofluorescence, flow cytometry)
Format: cell-based, human
Protocol: Purified monocytes (>85% monocytes)(1.5.10^6/flask)(Corning Costar, High Wycombe, UK) were incubated in 5 ml of tissue culture medium (TCM)(RPMI 1640 medium (Sigma, Poole, UK) supplemented with 10% heat-inactivated foetal calf serum (FCS)(Life Technologies, Paisley, UK). iDC were generated using granulocyte macrophage—colony stimulating factor (GM-CSF) (1000 U/ml)(Novartis Research Institute, Vienna, Austria) and IL-4 (500 U/ml) (R&D Systems, Oxford, UK). Monocytes were cultured for 3 or 7 days with cytokines, either alone or in the presence of rhuBiP (20 μg/ml). Mature DC were generated by addition of 500 ng/ml lipopolysaccharide (LPS) for the final 2 days of culture.
Immunofluorescent staining was performed as follows when required. Cells were suspended in immunofluorescent buffer (IF) (PBS/0.1% BSA/0.05% azide) washed and incubated for 10 mins on ice with normal human serum. After washing twice in IF buffer, saturating concentrations of fluorescein isothiocyanate (FITC)-, phycoerythrin (PE) or peridium chlorophyll (Per-CP)-conjugated monoclonal antibodies (mAb) recognizing human CD14, CD86, CD80, HLA-DR, CD11c, CD1a, CD83, CD40 and CD85j, (all from Becton Dickinson/PharMingen, Oxford, UK) were added singly or in combination, as stated in the text, to cells for 20 mins on ice. Cells were then washed twice in IF buffer and analysed. Isotype controls, IgG1 and IgG2a (Becton Dickinson, Oxford, UK) were used in parallel.
Purified monocytes were cultured with and without BiP for three days (early DC/early DC(BiP)) or 7 days with GM-CSF and IL-4 (iDC/iDC(BiP)) or for 7 days with additional LPS for the final 2 days (mDC/mDC(BiP)). *BiP [20 μg/ml] was added at the same time as the cytokines. (a) and (b): Results are expressed as mean and standard error (mean ±SE) of the % positive cells from 4 or 7 different experiments, respectively.
Table A: Surface expression of phenotypic markers: Purified monocytes were differentiated into immature dendritic cells (iDC) with GM-CSF and IL-4 for 7d in the presence or absence of BiP (20 μg/ml). LPS (500 ng/ml) was added for the final 2d to give mature DC(mDC). Cell surface expression of molecules was measured by immunofluorescence and flow cytometry. Results are expressed as mean and standard deviation (mean ±SD) of the mean fluorescent intensity (MFI) from 7 different experiments:
Purified MO (>85% monocytes)(1.5.106/flask)(Corning Costar, High Wycombe, UK) were incubated in 5 ml of tissue culture medium (TCM)(RPMI 1640 medium (Sigma, Poole, UK) supplemented with 10% heat-inactivated foetal calf serum (FCS)(Life Technologies, Paisley, UK). iDC were generated by culturing MO with granulocyte macrophage-colony stimulating factor (GM-CSF) (1000 U/ml)(Novartis Research Institute, Vienna, Austria) and IL-4 (500 U/ml) (R&D Systems, Oxford, UK) for 3 or 7d, either alone or in the presence of rhuBiP (20 μg/ml). Cytokines and BiP were replenished every 2d. Mature DC were generated by addition of LPS (500 ng/ml) for the final 2d of a 7d culture.
Immunofluorescent staining was performed, as described previously (39), on DC harvested at day 7, T cells after 4 days co-culture with DC. Saturating concentrations of fluorescein isothiocyanate (FITC)-, phycoerythrin (PE) or peridium chlorophyll (Per-CP)-conjugated mAb were added recognizing CD14, CD86, CD80, HLA-DR, CD11c, CD1a, CD83, CD85j, IL-10 receptor; purity of the negatively selected MO and T cells was checked using CD3, CD4, CD14, CD20 and CD57 (all from Becton Dickinson/PharMingen (BD), Oxford, UK). Intracellular staining was carried out following fixation of cells with 1% paraformaldehyde for 5 minutes. Cells were then washed with immunofluorescence buffer (PBS/0.1% BSA/0.05% azide) containing 0.3% saponin. 0.3% saponin was then present in all solutions thereafter. CD152/CTLA-4 (BD, Oxford UK) and IDO (Santa Cruz, Autogen Bioclear, UK) were intracellular stains. Isotype controls, IgG1 and IgG2a (BD, Oxford, UK) were used in parallel. […]

[1] = Early iDC(BiP): 3 days GM-CSF and IL-4, BiP 20 μg/ml, mean ±SE
[2] = iDC(BiP): 7 days GM-CSF and IL-4, BiP 20 μg/ml, mean ±SE
[3] = mDC(BiP), BiP 20 μg/ml, mean fluorescence intensity, up to 7 experiments
[4] = mDC(BiP): 7 days GM-CSF and IL-4, LPS final 2 days, BiP 20 μg/ml, mean ±SE

**Q.** Which “% cells CD1a+” value [1] does the source give for “BiP: 78 kD endoplasmic reticulum chaperone protein as disclosed in WO 00/21995; recombinant human protein” here?
**A.** 1 ± 2%

**Q.** What about the “% cells CD11c+” value [1] of the same substance?
**A.** 81 ± 7%

**Q.** And the “% cells CD80+” value [1]?
**A.** 36 ± 15%

**Q.** What about the “% cells CD83” value [1] of the same substance?
**A.** 2. ± 2%

**Q.** And the “% cells CD86+” value [1]?
**A.** 3 ± 1%

**Q.** And the “% cells HLA-DR” value [1]?
**A.** 31 ± 7%

**Q.** And the “% cells CD14” value (Early iDC(BiP): monocytes 3 days with GM-CSF and IL-4, BiP 20 μg/ml, mean ±SE)?
**A.** 91 ± 6%

**Q.** And the “MFI CD11c” value (iDC(BiP), BiP 20 μg/ml, mean fluorescence intensity, up to 7 experiments)?
**A.** 2246 ± 329

**Q.** And the “% positive cells CD40+85j+” value (iDC(BiP): 7 days GM-CSF and IL-4, BiP 20 μg/ml)?
**A.** 26±19%

**Q.** And the “% positive cells CD1a+” value [2]?
**A.** 83 ± 9%

**Q.** And the “% positive cells CD11c+” value [2]?
**A.** 97 ± 2%

**Q.** And the “% positive cells CD14+” value [2]?
**A.** 59 ± 22%

**Q.** And the “% positive cells CD40+” value [2]?
**A.** 28 ± 20%

**Q.** What about the “% positive cells CD80+” value [2] of the same substance?
**A.** 88 ± 7%

**Q.** What about the “% positive cells CD83+” value [2] of the same substance?
**A.** 10 ± 5%

**Q.** And the “% positive cells CD86+” value [2]?
**A.** 31 ± 11%

**Q.** What about the “% positive cells CD210+” value [2] of the same substance?
**A.** 12 ± 9%

**Q.** And the “% positive cells HLA-DR+” value [2]?
**A.** 96 ± 2%

**Q.** What about the “maturation as determined by upregulation of CD83 after addition of LPS” value (mDC(BiP) (FIG. 10C)) of the same substance?
**A.** failed to mature

**Q.** And the “CD40 expression by mDC(BiP)” value (mDC(BiP) versus mDC)?
**A.** no difference in CD40 expression

**Q.** And the “MFI CD1a” value [3]?
**A.** 685 ± 145

**Q.** And the “MFI CD14” value [3]?
**A.** 366 ± 216

**Q.** What about the “MFI CD80” value [3] of the same substance?
**A.** 395 ± 31

**Q.** And the “MFI CD86” value [3]?
**A.** 112 ± 14

**Q.** What about the “MFI HLA-DR” value [3] of the same substance?
**A.** 1660 ± 167

**Q.** And the “cell surface expression of CD85j (ILT2)” value (mDC(BiP), n=4)?
**A.** 87.2±3.5%

**Q.** And the “% positive cells CD1a+” value [4]?
**A.** 76 ± 14%

**Q.** And the “% positive cells CD11c+” value [4]?
**A.** 94 ± 5%

**Q.** What about the “% positive cells CD14+” value [4] of the same substance?
**A.** 57 ± 22%

**Q.** And the “% positive cells CD40+” value [4]?
**A.** 32 ± 24%

**Q.** What about the “% positive cells CD40+85j+” value [4] of the same substance?
**A.** 29 ± 23%

**Q.** And the “% positive cells CD80+” value [4]?
**A.** 91 ± 6%

**Q.** What about the “% positive cells CD83+” value [4] of the same substance?
**A.** 10 ± 4%

**Q.** What about the “% positive cells CD86+” value [4] of the same substance?
**A.** 26 ± 9%

**Q.** And the “% positive cells CD210+” value [4]?
**A.** 19 ± 17%

**Q.** What about the “% positive cells HLA-DR+” value [4] of the same substance?
**A.** 96 ± 1%

**Q.** And the “CD14 and CD86 expression on DC cultured in the presence of BiP” value (mature DC, dose-dependent 0.5-20 μg/ml BiP (FIG. 10B))?
**A.** sustained CD14 expression and failed to upregulate CD86
